# From PubChem BioAssay AID2060509 (Molecular Pharmacology Branch, DTP, NCI, 2025)
# “And” between values parts separate entries of the source, which are not always exact repeats. Identical values can stand only once.
# Tested on: 485176-168-R4-J1-PDC spheroids with HUVEC/MSC, viability
# Test: Anticancer human tumor 485176-168-R4-J1-PDC patient-derived pancreatic adenocarcinoma cell line growth inhibition [GQUAD]
# Details: for viability, T/C: stronger effect = lower value
# Text: DNA G-quadruplex Stabilizer Agents in Combinations in Complex Spheroids
# A high-throughput screen of multi-cell type tumor spheroids was designed to identify active combinations of DNA G-quadruplex stabilizer agents and targeted small molecules. Complex spheroids include a stromal component modeled by human endothelial cells (HUVEC) and fibroblasts modeled by human mesenchymal stem cells (MSCs). The concentration ranges selected for each drug and investigational agent were based upon clinically achievable concentrations if the clinical Cmax of the agent was known.
# Compounds. The drugs and investigational agents: pidnarulex (CX-5461; NSC782164), APTO-253 (NSC789042), BRACO-19 (NSC847499), peposertib (NSC802822), ceralasertib (NSC780249), elimusertib (NSC800525), camonsertib (NSC841442), AZD-1390 (NSC803789), olaparib (NSC753686), talazoparib (NSC767125), ART-558 (NSC835418), sotorasib (NSC818433), MRTX-1133 (NSC836407), SN-38 (NSC673596), topotecan (NSC609699), etoposide (NSC141540), doxorubicin (NSC123127), gemcitabine (NSC613327), 5-fluorouracil (NSC19893), paclitaxel (NSC125973), vemurafenib (NSC761431), panobinostat (NSC761190), R-306465 (JNJ-16241199; NSC773264), adavosertib (NSC754352), TP-3654 (NSC805149), carboplatin (NSC241240), KSQ-4279 (NSC840948), and staurosporine (NSC755774) were obtained from the National Cancer Institute (NCI) Developmental Therapeutics Program Chemical Repository (34). The FDA-approved anticancer drug set is available from the NCI Developmental Therapeutics Program. […] The stock solutions were prepared in dimethyl sulfoxide (DMSO, Sigma-Aldrich, St. Louis, MO, cat. D2650) at 800-fold the tested concentration and stored at -70 degrees C prior to their use. All drugs and investigational agents were tested over a range starting from a high concentration at or near the clinical Cmax and decreasing in half-log increments. If the clinical Cmax for an agent had not been determined, the highest concentration tested was 10 microM.
# 2.3 Cell Culture. All cells were maintained in an incubator at 37 degrees C and 5% CO2 with 95% humidity. The PDC lines were cultured according to standard operating procedures established by the NCI PDMR. All PDCs were thawed and cultured in Matrigel-coated flasks prepared with a working solution of 1X Ham's F-12 nutrient mix, without supplementation (Invitrogen, cat. 11765054), 100 U/mL penicillin-streptomycin (Invitrogen, cat. 15140122), and 2.5% Matrigel (Corning Inc., cat. 354248) for the first three passages. The 857933-349-R-J2-PDC line was cultured in 6C/Colon 1B media, which includes advanced DMEM/F-12 (Thermo Fisher Scientific, cat. 12634028), 10 mM HEPES (Thermo Fisher Scientific, cat. 15630080), 1X GlutaMAX supplement (Thermo Fisher Scientific, cat. 35050061), 0.1 mg/mL primocin (InvivoGen, cat. ant-pm-2), 10% defined fetal bovine serum, heat inactivated (HyClone Laboratories Inc., cat. SH30070.03HI), 50% L-WRN conditioned media (ATCC, cat. CRL-3276), 1.25 mM N-Acetyl-L-cysteine (Sigma-Aldrich, cat. A9165), 10 mM nicotinamide (Sigma-Aldrich, cat. N0636), 1X B-27 supplement (Thermo Fisher Scientific, cat. 17504044), 1X N-2 supplement (Thermo Fisher Scientific, cat. 17502048), 10 microM Y-27632 dihydrochloride (Tocris Bioscience, cat. 1254), and 50 ng/mL human EGF recombinant protein (Thermo Fisher Scientific, cat. PHG0311). The 485176-168-R4-J1-PDC line was cultured in Panc media, which includes all 6C/Colon 1B media components plus 100 ng/mL human FGF-10 (Thermo Fisher Scientific, cat. 100-26), 500 nM SB-431542 (Selleckchem, cat. S1067), and gastrin (Tocris, cat. 3006).
# […]
# [1] = curve of first compound, second compound 0.0316 µM
# [2] = curve of first compound, second compound 0.1 µM
# [3] = curve of first compound, second compound 0.316 µM
# [4] = curve of first compound, second compound 1 µM
# [5] = curve of first compound, second compound 3.16 µM
# [6] = curve of first compound, second compound 10 µM
# [7] = second compound 0.0316 µM, first compound 0.0316 µM
# [8] = second compound 0.0316 µM, first compound 0.1 µM
# [9] = second compound 0.0316 µM, first compound 0.316 µM
# [10] = second compound 0.0316 µM, first compound 1 µM
# [11] = second compound 0.0316 µM, first compound 3.16 µM
# [12] = second compound 0.0316 µM, first compound 10 µM
# [13] = second compound 0.1 µM, first compound 0.0316 µM
# [14] = second compound 0.1 µM, first compound 0.1 µM
# [15] = second compound 0.1 µM, first compound 0.316 µM
# [16] = second compound 0.1 µM, first compound 1 µM
# [17] = second compound 0.1 µM, first compound 3.16 µM
# [18] = second compound 0.1 µM, first compound 10 µM
# [19] = second compound 0.316 µM, first compound 0.0316 µM
# [20] = second compound 0.316 µM, first compound 0.1 µM
# [21] = second compound 0.316 µM, first compound 0.316 µM
# [22] = second compound 0.316 µM, first compound 1 µM
# [23] = second compound 0.316 µM, first compound 3.16 µM
# [24] = second compound 0.316 µM, first compound 10 µM
# [25] = second compound 1 µM, first compound 0.0316 µM
# [26] = second compound 1 µM, first compound 0.1 µM
# [27] = second compound 1 µM, first compound 0.316 µM
# [28] = second compound 1 µM, first compound 1 µM
# [29] = second compound 1 µM, first compound 3.16 µM
# [30] = second compound 1 µM, first compound 10 µM
# [31] = second compound 3.16 µM, first compound 0.0316 µM
# [32] = second compound 3.16 µM, first compound 0.1 µM
# [33] = second compound 3.16 µM, first compound 0.316 µM
# [34] = second compound 3.16 µM, first compound 1 µM
# [35] = second compound 3.16 µM, first compound 3.16 µM
# [36] = second compound 3.16 µM, first compound 10 µM
# [37] = second compound 10 µM, first compound 0.0316 µM
# [38] = second compound 10 µM, first compound 0.1 µM
# [39] = second compound 10 µM, first compound 0.316 µM
# [40] = second compound 10 µM, first compound 1 µM
# [41] = second compound 10 µM, first compound 3.16 µM
# [42] = second compound 10 µM, first compound 10 µM
# 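Also: spheroids exposed to compounds for seven days before readout.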
# 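For viability, T/C in this document: percent viability relative to DMSO vehicle control wells as 100%.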
smiles,measurement,setting,value
Cc1cccc(N(C)C(=O)C2C(O)CCN2c2nc(C)cc(C(F)(F)F)c2C#N)c1 (stereo unspecified) + Cc1cnc(CNC(=O)c2c(=O)c3ccc(N4CCCN(C)CC4)nc3n3c2sc2ccccc23)cn1,IC50,[1],> 10000 nM
same,IC50,[2],> 10000 nM
same,IC50,[3],> 10000 nM
same,IC50,[4],> 10000 nM
same,IC50,[5],< 31.6 nM
same,IC50,[6],< 31.6 nM
same,"viability, T/C",[7],91.9%
same,"viability, T/C",[8],100%
same,"viability, T/C",[9],89%
same,"viability, T/C",[10],97.2%
same,"viability, T/C",[11],96%
same,"viability, T/C",[12],98.3%
same,"viability, T/C",[13],64.2%
same,"viability, T/C",[14],78%
same,"viability, T/C",[15],78.6%
same,"viability, T/C",[16],67.9%
same,"viability, T/C",[17],65.8%
same,"viability, T/C",[18],67.8%
same,"viability, T/C",[19],66.8%
same,"viability, T/C",[20],64%
same,"viability, T/C",[21],56.3%
same,"viability, T/C",[22],60.9%
same,"viability, T/C",[23],66.6%
same,"viability, T/C",[24],60.5%
same,"viability, T/C",[25],52%
same,"viability, T/C",[26],45.5%
same,"viability, T/C",[27],53.9%
same,"viability, T/C",[28],45.9%
same,"viability, T/C",[29],57.1%
same,"viability, T/C",[30],47.5%
same,"viability, T/C",[31],44%
same,"viability, T/C",[32],47.9%
same,"viability, T/C",[33],39.5%
same,"viability, T/C",[34],43.3%
same,"viability, T/C",[35],47.8%
same,"viability, T/C",[36],40.7%
same,"viability, T/C",[37],42.7%
same,"viability, T/C",[38],39%
same,"viability, T/C",[39],43.4%
same,"viability, T/C",[40],38.1%
same,"viability, T/C",[41],45.7%
same,"viability, T/C",[42],40.6%
O=C(NO)c1cnc(N2CCN(S(=O)(=O)c3ccc4ccccc4c3)CC2)nc1 + Cc1cnc(CNC(=O)c2c(=O)c3ccc(N4CCCN(C)CC4)nc3n3c2sc2ccccc23)cn1,IC50,[1],322 nM
same,IC50,[2],185 nM
same,IC50,[3],132 nM
same,IC50,[4],< 31.6 nM
same,IC50,[5],< 31.6 nM
same,IC50,[6],< 31.6 nM
same,"viability, T/C",[7],81%
same,"viability, T/C",[8],62.6%
same,"viability, T/C",[9],53.3%
same,"viability, T/C",[10],8.83%
same,"viability, T/C",[11],0.53%
same,"viability, T/C",[12],0.27%
same,"viability, T/C",[13],66.3%
same,"viability, T/C",[14],57.2%
same,"viability, T/C",[15],42%
same,"viability, T/C",[16],8.37%
same,"viability, T/C",[17],0.28%
same,"viability, T/C",[18],1.03%
same,"viability, T/C",[19],59.1%
same,"viability, T/C",[20],51.5%
same,"viability, T/C",[21],35.7%
same,"viability, T/C",[22],2.63%
same,"viability, T/C",[23],0.22%
same,"viability, T/C",[24],0.44%
same,"viability, T/C",[25],39.8%
same,"viability, T/C",[26],44.7%
same,"viability, T/C",[27],23.2%
same,"viability, T/C",[28],0.9%
same,"viability, T/C",[29],1.33%
same,"viability, T/C",[30],0.81%
same,"viability, T/C",[31],45.5%
same,"viability, T/C",[32],41.9%
same,"viability, T/C",[33],18.6%
same,"viability, T/C",[34],0.3%
same,"viability, T/C",[35],0.21%
same,"viability, T/C",[36],0.18%
same,"viability, T/C",[37],36.3%
same,"viability, T/C",[38],33.3%
same,"viability, T/C",[39],14.1%
same,"viability, T/C",[40],0.24%
same,"viability, T/C",[41],1.65%
same,"viability, T/C",[42],0.46%
CC(C)n1c(=O)n(C)c2cnc3cc(F)c(-c4ccc(OCCCN5CCCCC5)nc4)cc3c21,"viability, T/C",compound 0.0316 µM,91.6% and 91.4% and 87.6%
same,"viability, T/C",compound 0.1 µM,84.9% and 80% and 85%
same,"viability, T/C",compound 0.316 µM,92.1% and 95.7% and 88.2%
same,"viability, T/C",compound 1 µM,91.2% and 77.1% and 86.4%
same,"viability, T/C",compound 3.16 µM,82.5% and 93.8% and 83.5%
same,"viability, T/C",compound 10 µM,78.8% and 75.8% and 72.5%
same,IC50,curve of compound,> 10000 nM
